# What was measured:
# bedstraw = experiment: Test B pre/postemergence bedstraw; type: in vivo, Galium aparine
# Procedure, shortened: (§1)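 Test chemicals in a non-phytotoxic solvent mixture with surfactant were sprayed preemergence onto planted seeds and postemergence onto plants 2 to 18 cm tall (1- to 4-leaf stage). After twelve to sixteen days in a greenhouse, injury was visually rated against untreated controls from 0 (no effect) to 10 (complete control).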
# blackgrass = experiment: Test B pre/postemergence blackgrass; type: in vivo, Alopecurus myosuroides
# Procedure, shortened: as §1
# surinam grass = experiment: Test B pre/postemergence surinam grass; type: in vivo, Brachiaria decumbens
# Procedure, shortened: as §1
# cocklebur = experiment: Test B pre/postemergence cocklebur; type: in vivo, Xanthium strumarium
# Procedure, shortened: as §1
# corn = experiment: Test B pre/postemergence corn; type: in vivo, Zea mays
# Procedure, shortened: as §1
# crabgrass = experiment: Test B pre/postemergence crabgrass; type: in vivo, Digitaria sanguinalis
# Procedure, shortened: as §1
# giant foxtail = experiment: Test B pre/postemergence giant foxtail; type: in vivo, Setaria faberii
# Procedure, shortened: as §1
# rape = experiment: Test B pre/postemergence rape; type: in vivo, Brassica napus
# Procedure, shortened: as §1
# soybean = experiment: Test B pre/postemergence soybean; type: in vivo, Glycine max
# Procedure, shortened: as §1
# sugar beet = experiment: Test B pre/postemergence sugar beet; type: in vivo, Beta vulgaris
# Procedure, shortened: as §1
# velvetleaf = experiment: Test B pre/postemergence velvetleaf; type: in vivo, Abutilon theophrasti
# Procedure, shortened: as §1
# wheat = experiment: Test B pre/postemergence wheat; type: in vivo, Triticum aestivum
# Procedure, shortened: as §1
# purple nutsedge = experiment: Test B pre/postemergence purple nutsedge; type: in vivo, Cyperus rotundus
# Procedure, shortened: as §1
# [1] = Postemergence, Rate 125 g/ha, scale of 0 to 10 where 0 is no effect and 10 is complete control
# [2] = Preemergence, Rate 62 g/ha, scale of 0 to 10 where 0 is no effect and 10 is complete control
# [3] = Preemergence, Rate 125 g/ha, 0 is no effect, 10 is complete control
# [4] = Preemergence, Rate 250 g/ha, scale 0 to 10, 0 is no effect, 10 is complete control
# [5] = Preemergence, Rate 500 g/ha, scale 0 to 10 (0 no effect, 10 complete control)
# [6] = Rate 62 g/ha, Postemergence, scale of 0 to 10 where 0 is no effect and 10 is complete control
# [7] = Rate 250 g/ha, Postemergence, scale 0 to 10, 0 is no effect, 10 is complete control
# [8] = Rate 500 g/ha, Postemergence, scale 0 to 10
smiles,measurement,setting,value
CC(C)N(C(=O)n1oc(=O)n([C@@H](C)c2ccccc2)c1=O)c1ccc(F)cc1 [Compound 167],Bedstraw plant response rating,bedstraw; [1],0
same,Bedstraw plant response rating,bedstraw; [2],0
same,Bedstraw plant response rating (0 to 10 scale),bedstraw; [3],0
same,Bedstraw plant response rating,bedstraw; [4],3
same,Bedstraw plant response rating,bedstraw; [5],5
same,Bedstraw plant response rating,bedstraw; [6],0
same,"Plant response rating, Bedstraw",bedstraw; [7],8
same,Blackgrass plant response rating,blackgrass; [1],0
same,Blackgrass plant response rating,blackgrass; [2],0
same,Blackgrass plant response rating (0 to 10 scale),blackgrass; [3],0
same,Blackgrass plant response rating,blackgrass; [4],3
same,Blackgrass plant response rating,blackgrass; [5],3
same,Blackgrass plant response rating,blackgrass; [6],0
same,"Plant response rating, Blackgrass",blackgrass; [7],5
same,Blackgrass plant response rating,blackgrass; [8],5
same,B. signalgrass plant response rating,surinam grass; [1],0
same,B. signalgrass plant response rating,surinam grass; [2],2
same,B. signalgrass plant response rating (0 to 10 scale),surinam grass; [3],5
same,B. signalgrass plant response rating,surinam grass; [4],5
same,B. signalgrass plant response rating,surinam grass; [5],8
same,B. signalgrass plant response rating,surinam grass; [6],0
same,"Plant response rating, B. signalgrass",surinam grass; [7],0
same,B. signalgrass plant response rating,"surinam grass; Rate 500 g/ha, Postemergence, scale 0 to 10, 0 no effect, 10 complete control",0
same,Cocklebur plant response rating,cocklebur; [1],0
same,Cocklebur plant response rating,cocklebur; [2],0
same,Cocklebur plant response rating (0 to 10 scale),cocklebur; [3],0
same,Cocklebur plant response rating,cocklebur; [4],0
same,Cocklebur plant response rating,cocklebur; [5],0
same,Cocklebur plant response rating,cocklebur; [6],0
same,"Plant response rating, Cocklebur",cocklebur; [7],0
same,Cocklebur plant response rating,cocklebur; [8],2
same,Corn plant response rating,corn; [1],0
same,Corn plant response rating,corn; [2],0
same,Corn plant response rating (0 to 10 scale),corn; [3],0
same,Corn plant response rating,corn; [4],0
same,Corn plant response rating,corn; [5],0
same,Corn plant response rating,corn; [6],0
same,"Plant response rating, Corn",corn; [7],0
same,Corn plant response rating,corn; [8],0
same,Crabgrass plant response rating,crabgrass; [1],3
same,Crabgrass plant response rating,crabgrass; [2],7
same,Crabgrass plant response rating (0 to 10 scale),crabgrass; [3],8
same,Crabgrass plant response rating,crabgrass; [4],10
same,Crabgrass plant response rating,crabgrass; [5],10
same,Crabgrass plant response rating,crabgrass; [6],0
same,"Plant response rating, Crabgrass",crabgrass; [7],9
same,Crabgrass plant response rating,crabgrass; [8],9
same,Giant foxtail plant response rating,giant foxtail; [1],0
same,Giant foxtail plant response rating,giant foxtail; [2],8
same,Giant foxtail plant response rating (0 to 10 scale),giant foxtail; [3],9
same,Giant foxtail plant response rating,giant foxtail; [4],10
same,Giant foxtail plant response rating,giant foxtail; [5],10
same,Giant foxtail plant response rating,giant foxtail; [6],0
same,"Plant response rating, Giant foxtail",giant foxtail; [7],0
same,Giant foxtail plant response rating,giant foxtail; [8],0
same,Rape plant response rating,rape; [1],0
same,Rape plant response rating,rape; [2],0
same,Rape plant response rating (0 to 10 scale),rape; [3],0
same,Rape plant response rating,rape; [4],0
same,Rape plant response rating,rape; [5],5
same,Rape plant response rating,rape; [6],0
same,"Plant response rating, Rape",rape; [7],0
same,Rape plant response rating,rape; [8],0
same,Soybean plant response rating,soybean; [1],3
same,Soybean plant response rating,soybean; [2],0
same,Soybean plant response rating (0 to 10 scale),soybean; [3],0
same,Soybean plant response rating,soybean; [4],0
same,Soybean plant response rating,soybean; [5],0
same,Soybean plant response rating,soybean; [6],2
same,"Plant response rating, Soybean",soybean; [7],3
same,Soybean plant response rating,soybean; [8],5
same,Sugarbeets plant response rating,sugar beet; [1],0
same,Sugarbeets plant response rating,sugar beet; [2],0
same,Sugarbeets plant response rating (0 to 10 scale),sugar beet; [3],2
same,Sugarbeets plant response rating,sugar beet; [4],5
same,Sugarbeets plant response rating,sugar beet; [5],5
same,Sugarbeets plant response rating,sugar beet; [6],0
same,"Plant response rating, Sugarbeets",sugar beet; [7],0
same,Sugarbeets plant response rating,sugar beet; [8],0
same,Velvetleaf plant response rating,velvetleaf; [2],0
same,Velvetleaf plant response rating (0 to 10 scale),velvetleaf; [3],0
same,Velvetleaf plant response rating,velvetleaf; [4],0
same,Velvetleaf plant response rating,velvetleaf; [5],3
same,"Plant response rating, Velvetleaf",velvetleaf; [7],0
same,Velvetleaf plant response rating,velvetleaf; [8],2
same,Wheat plant response rating,wheat; [2],0
same,Wheat plant response rating (0 to 10 scale),wheat; [3],0
same,Wheat plant response rating,wheat; [4],0
same,Wheat plant response rating,wheat; [5],0
same,"Plant response rating, Wheat",wheat; [7],0
same,Wheat plant response rating,wheat; [8],0
same,Nutsedge plant response rating,purple nutsedge; [1],0
same,Nutsedge plant response rating,purple nutsedge; [2],0
same,Nutsedge plant response rating (0 to 10 scale),purple nutsedge; [3],0
same,Nutsedge plant response rating,purple nutsedge; [4],0
same,Nutsedge plant response rating,purple nutsedge; [5],0
same,Nutsedge plant response rating,purple nutsedge; [6],0
same,"Plant response rating, Nutsedge",purple nutsedge; [7],0
same,Nutsedge plant response rating,purple nutsedge; [8],0

# Reference: patent US6737383B1, “Herbicidal oxadiazolidines” (priority 1999, dated 2004)
